Assay results as given in ChEMBL document CHEMBL5727979, “Thiazolidinedione derivative and use thereof” (2020).

Biological target: T1, 15-hydroxyprostaglandin dehydrogenase [NAD(+)] (Homo sapiens, UniProt P15428)
T1 sequence (P15428 whole entry): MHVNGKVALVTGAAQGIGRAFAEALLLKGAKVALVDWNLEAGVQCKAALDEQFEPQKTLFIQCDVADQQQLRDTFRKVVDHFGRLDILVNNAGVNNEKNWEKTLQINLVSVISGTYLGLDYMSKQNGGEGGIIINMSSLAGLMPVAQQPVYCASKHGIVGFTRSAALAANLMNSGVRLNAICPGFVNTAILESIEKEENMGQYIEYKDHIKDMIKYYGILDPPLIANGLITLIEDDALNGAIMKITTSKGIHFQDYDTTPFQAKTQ
Experiment: Inhibitory Activity Assay: To confirm whether the compounds according to the present disclosure have an effect of inhibiting 15-PGDH, the NADH, which appears at the wavelength of 340 nm, of Compounds 1 to 105 purified in (1) nm was measured by using fluorescence spectra photometer. That is, the cells were treated with a solution including 50 mM Tris-HCl (pH 7.5), 0.1 mM DTT, 0.25 mM (NAD+), 10 μg of purified 15-PGDH enzyme, 21 μM PGE2. and various concentrations (0.0001 μM to 64 μM) of the derivative compound according to the present disclosure. In this case, the total volume of the solution was 2 ml. Then, the absorbance of the reaction mixture was recorded at the wavelength of 340 nm. To measure the activity of the derivative compounds according to the present disclosure, which is an inhibitor of 15-PGDH, the average value of NADH absorbance at 340 nm at various concentrations was obtained from a standard curve. The results of the 15-PGDH inhibitory activity of the derivative compounds according to the present disclosure are shown in Tables 1 and 2 below.

IC50 [nM]	SMILES
431	O=C1NC(=O)/C(=C/c2ccc(OC(=O)C3CCC3)cc2)S1
50.8	O=C(CCC1CCCC1)Oc1ccc(/C=C2\SC(=O)NC2=O)c(Cl)c1

SMILES	IC50 [nM]
O=C1NC(=O)/C(=C/c2ccc(OC(=O)c3ccccc3)cc2)S1	124
